Source: US20260022143A1, “Cyclic Peptide Inhibitors of IL-23” (JANSSEN PHARMACEUTICA NV, priority 2022, published 2026)
Positions of bridges follow the written chain, without caps; N, C: chain ends. Non-standard residues stand in square brackets, D forms with d. Residues, ends and D or L forms follow the SMILES beside them. *: point of attachment. Trp(7-(3-AcNH-Ph)) = CC(=O)Nc1cccc(-c2cccc3c(C[C@H](N)C(=O)O)c[nH]c23)c1; Me3N+(CH2)2O(CH2)2O(CH2)2CO = C[N+](C)(C)CCOCCOCCC(=O)*; CH2CH2OCH2CH2OCH2CH2NMe3+ = C[N+](C)(C)CCOCCOCC*; dLys(Me3) = C[N+](C)(C)CCCC[C@@H](N)C(=O)O; 2Nal = N[C@@H](Cc1ccc2ccccc2c1)C(=O)O; 3Pal = N[C@@H](Cc1cccnc1)C(=O)O; Ethyl(2-guanidino) = N=C(N)NCC*; Lys(Me) = CNCCCC[C@H](N)C(=O)O; Pen = CC(C)(S)[C@H](N)C(=O)O; Thp = NC1(C(=O)O)CCOCC1; Sar = CNCC(=O)O

Experiments:
IL-23R = target: T1, IL-23R (Homo sapiens, UniProt Q5VWK5); experiment: IL23R Reporter Assay; format: cell-based; details: HEK293 cells containing IL-23R, IL-12RP1 and STAT-inducible firefly luciferase reporter; 10 ng/mL IL-23 (EC90); 5 h at 37° C.; read-out: IL23R Reporter Assay
T1 construct: host or cells: HEK293
T1 sequence (Q5VWK5 24-629): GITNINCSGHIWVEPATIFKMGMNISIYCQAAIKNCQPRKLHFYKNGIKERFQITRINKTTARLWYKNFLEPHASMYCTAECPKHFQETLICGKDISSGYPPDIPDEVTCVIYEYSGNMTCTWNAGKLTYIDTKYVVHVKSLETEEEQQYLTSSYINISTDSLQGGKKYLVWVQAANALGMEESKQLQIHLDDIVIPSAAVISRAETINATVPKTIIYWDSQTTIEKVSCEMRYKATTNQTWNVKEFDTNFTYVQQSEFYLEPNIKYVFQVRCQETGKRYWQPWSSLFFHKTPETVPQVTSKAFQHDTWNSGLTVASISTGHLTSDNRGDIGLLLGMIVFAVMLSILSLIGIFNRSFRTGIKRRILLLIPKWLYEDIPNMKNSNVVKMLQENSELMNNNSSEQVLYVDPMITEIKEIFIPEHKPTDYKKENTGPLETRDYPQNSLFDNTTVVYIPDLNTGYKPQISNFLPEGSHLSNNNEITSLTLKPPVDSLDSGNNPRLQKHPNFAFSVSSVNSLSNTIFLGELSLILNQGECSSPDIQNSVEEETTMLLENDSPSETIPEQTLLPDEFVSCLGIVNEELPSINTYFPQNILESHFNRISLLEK

[1] = Exposed Polar Surface Area (EPSA); format: physicochemical; details: SFC on Chirex 3014 column; sample 1 mM DMSO stock; read-out: EPSA
Method in brief: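 EPSA, in Å^2, is read from SFC retention time through a linear relationship established with eight calibration standards. Separation uses a Chirex 3014 stationary phase, 35 °C, 14 MPa back pressure, and a 5–60% methanol/ammonium formate modifier gradient in CO2.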

| Structure (SMILES) | IC50 (IL-23R) [nM] | EPSA [1] [A^2] |
| --- | --- | --- |
| CC(=O)NCCCC[C@@H]1NC(=O)[C@H](Cc2c[nH]c3c(-c4cccc(NC(C)=O)c4)cccc23)NC(=O)[C@H]([C@@H](C)O)NC(=O)[C@H](CC(N)=O)NC(=O)[C@@H](NC(=O)[C@@H](CCCC[N+](C)(C)C)NC(C)=O)C(C)(C)SSC(C)(C)[C@@H](C(=O)N[C@@H](Cc2ccc(OCCNC(=N)N)cc2)C(=O)N[C@@H](Cc2ccc3ccccc3c2)C(=O)NC2(C(=O)N[C@@H](CCC(=O)O)C(=O)N[C@@H](CC(N)=O)C(=O)N[C@@H](Cc3cccnc3)C(=O)N(C)CC(N)=O)CCOCC2)NC1=O [compound 563, MeCO-k(Me)3-Pen(3)-N-T-7(3NAcPh)W-K(Ac)-Pen(3)-AEF(G)-2Nal-THP-E-N-3Pya-Sar-CONH2] (Ac-[dLys(Me3)][Pen]NT[Trp(7-(3-AcNH-Ph))]K(Ac)[Pen]Y(Ethyl(2-guanidino))[2Nal][Thp]EN[3Pal][Sar]-NH2; disulfide 2-7) | 1.5 | 194 |
| CC(=O)N(C)CCCC[C@@H]1NC(=O)[C@H](Cc2c[nH]c3ccccc23)NC(=O)[C@H]([C@@H](C)O)NC(=O)[C@H](CC(=O)N(C)C)NC(=O)[C@@H](NC(=O)CCOCCOCC[N+](C)(C)C)C(C)(C)SSC(C)(C)[C@@H](C(=O)N[C@@H](Cc2ccc(OCCOCCOCC[N+](C)(C)C)cc2)C(=O)N[C@@H](Cc2c[nH]c3ccccc23)C(=O)NC2(C(=O)N[C@@H](CCCCN(C)C(C)=O)C(=O)N[C@@H](CC(N)=O)C(=O)N[C@H]3Cc4cnccc4N(CC(=O)N(C)C)C3=O)CCOCC2)NC1=O [compound 564, cPEG3aCO-Pen(3)-N(N(Me)2)-T-W-K(NMeAc)-Pen(3)-APEG3F-W-THP-K(NMeAc)-N-3Pya-Sar-CON(Me)2] | 180 | 153 |
| CC(=O)N(C)CCCC[C@@H]1NC(=O)[C@H](Cc2ccccc2)NC(=O)[C@H]([C@@H](C)O)NC(=O)[C@H](CC(=O)N(C)C)NC(=O)[C@@H](NC(=O)CCOCCOCC[N+](C)(C)C)C(C)(C)SSC(C)(C)[C@@H](C(=O)N[C@@H](Cc2ccc(OCCOCCOCC[N+](C)(C)C)cc2)C(=O)N[C@@H](Cc2ccccc2)C(=O)NC2(C(=O)N[C@@H](CCCCN(C)C(C)=O)C(=O)N[C@@H](CC(N)=O)C(=O)N[C@@H](Cc3cccnc3)C(=O)N(C)CC(=O)N(C)C)CCOCC2)NC1=O [compound 565, cPEG3aCO-Pen(3)-N(N(Me)2)-T-F-K(NMeAc)-Pen(3)-APEG3F-F-THP-K(NMeAc)-N-3Pya-Sar-CON(Me)2] ({Me3N+(CH2)2O(CH2)2O(CH2)2CO}-[Pen]D(NMe2)TF[Lys(Me)](Ac)[Pen]Y(CH2CH2OCH2CH2OCH2CH2NMe3+)F[Thp][Lys(Me)](Ac)N[3Pal][Sar]-NMe2; disulfide 1-6) | > 16600 | 144 |
| CC(=O)N(C)CCCC[C@@H]1NC(=O)[C@H](CC(C)C)NC(=O)[C@H]([C@@H](C)O)NC(=O)[C@H](CC(=O)N(C)C)NC(=O)[C@@H](NC(=O)CCOCCOCC[N+](C)(C)C)C(C)(C)SSC(C)(C)[C@@H](C(=O)N[C@@H](Cc2ccc(OCCOCCOCC[N+](C)(C)C)cc2)C(=O)N[C@@H](CC(C)C)C(=O)NC2(C(=O)N[C@@H](CCCCN(C)C(C)=O)C(=O)N[C@@H](CC(N)=O)C(=O)N[C@@H](Cc3cccnc3)C(=O)N(C)CC(=O)N(C)C)CCOCC2)NC1=O [compound 566, cPEG3aCO-Pen(3)-N(N(Me)2)-T-L-K(NMeAc)-Pen(3)-APEG3F-L-THP-K(NMeAc)-N-3Pya-Sar-CON(Me)2] ({Me3N+(CH2)2O(CH2)2O(CH2)2CO}-[Pen]D(NMe2)TL[Lys(Me)](Ac)[Pen]Y(CH2CH2OCH2CH2OCH2CH2NMe3+)L[Thp][Lys(Me)](Ac)N[3Pal][Sar]-NMe2; disulfide 1-6) | > 3320 | 137 |
